# Measured values published in patent US20090203605A1, “Methods For Treating A Condition Characterized By Dysfunction In Protein Homeostasis” (THE SCRIPPS RESEARCH INSTITUTE, priority 2008, published 2009).
# Key:
# G269S/1278insTATC HexA = biological target: T1, G269S/1278insTATC HexA (Homo sapiens, UniProt P06865, G269S); experiment: Hex α-site cell assay in Tay-Sachs fibroblast cell line; assay type: cell-based; conditions: ADNJ 20 to 50 μM, exposed once without media changes, after 192 h
# T1 construct: host or cells: Tay-Sachs patient fibroblasts, lysed for the MUGS assay
# T1 sequence (P06865 89-529 G269S): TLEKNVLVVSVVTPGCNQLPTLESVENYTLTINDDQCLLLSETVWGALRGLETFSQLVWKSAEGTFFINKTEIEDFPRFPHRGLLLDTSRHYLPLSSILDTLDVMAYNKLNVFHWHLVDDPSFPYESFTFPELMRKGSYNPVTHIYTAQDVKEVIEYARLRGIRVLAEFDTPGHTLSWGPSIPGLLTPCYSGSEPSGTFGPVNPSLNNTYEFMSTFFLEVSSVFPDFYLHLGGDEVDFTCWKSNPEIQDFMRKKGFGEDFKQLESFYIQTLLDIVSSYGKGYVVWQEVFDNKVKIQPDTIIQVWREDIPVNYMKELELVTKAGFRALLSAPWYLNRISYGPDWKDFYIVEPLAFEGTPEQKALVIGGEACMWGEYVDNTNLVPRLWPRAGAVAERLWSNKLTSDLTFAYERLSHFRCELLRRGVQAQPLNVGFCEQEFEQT
# T1 sequence (P07686 122-556 partner): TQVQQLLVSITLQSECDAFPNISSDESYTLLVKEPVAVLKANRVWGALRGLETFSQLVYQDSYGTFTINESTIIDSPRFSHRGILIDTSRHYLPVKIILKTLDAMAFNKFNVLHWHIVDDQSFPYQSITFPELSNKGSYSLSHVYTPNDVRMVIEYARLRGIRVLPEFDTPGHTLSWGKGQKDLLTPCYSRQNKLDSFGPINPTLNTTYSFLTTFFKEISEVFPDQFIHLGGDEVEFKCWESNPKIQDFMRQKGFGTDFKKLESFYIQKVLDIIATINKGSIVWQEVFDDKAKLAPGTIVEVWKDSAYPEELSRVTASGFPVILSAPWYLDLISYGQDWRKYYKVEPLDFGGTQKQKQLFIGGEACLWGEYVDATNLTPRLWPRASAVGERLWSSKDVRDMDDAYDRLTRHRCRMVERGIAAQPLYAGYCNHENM
# Description: We therefore evaluated the ability of these proteostasis regulators to restore partial function to HexA, a heterodimeric enzyme composed of α- and β-subunits that degrades GM2 gangliosides in the lysosome. Mutations in the β-hexosaminidase A α-subunit can cause extensive ERAD of HexA, leading to Tay-Sachs disease (TSD). Jeyakumar et al., Neuropathol Appl Neurobiol 28: 343-357, 2002. HexA activity was studied in a compound heterozygous fibroblast cell line (GM13204), harboring one of the most prevalent β-hexosaminidase A α-subunit mutations (G269S) found in Tay-Sachs patients and a second mutated HexA allele (1278insTATC) with a stop codon. […] Tropak et al., J Biol Chem 279: 13478-13487, 2004.
# The Hex α-site cell assay has been previously described. Tropak et al., J Biol Chem 279: 13478-13487, 2004. Cells were plated as described for the GC assay. After 1 to 8 days of incubation the medium was removed, cells were washed with PBS, and lysed with 60 μl of 10 mM citrate/phosphate buffer pH 4.2 (CP buffer) containing 0.5% human serum albumin and 0.5% Triton X-100. 30 μl of aliquots were transferred to a 96-well plate and Hex α-site activity was measured by adding 30 μl of 3.2 mM MUGS in CP buffer to each well and incubating the plates at 37° C. for 1 to 7 hour. The reaction was stopped by adding 200 μl of 0.1 M 2-amino-2-methyl-1-propanol pH 10.5 and the fluorescence was measured (excitation 365 nm, emission 450 nm).
# L444P GC = biological target: T2, L444P GC (Homo sapiens, UniProt P04062, L483P); experiment: GC activity assay in L444P GC Gaucher patient-derived fibroblasts; assay type: cell-based; conditions: for L444P GC activity, maximum fold increase: 30 μM
# T2 construct: a L444P GC Gaucher fibroblast cell line (GM08760); host or cells: Gaucher patient-derived skin fibroblasts
# T2 sequence (P04062 40-536 L483P): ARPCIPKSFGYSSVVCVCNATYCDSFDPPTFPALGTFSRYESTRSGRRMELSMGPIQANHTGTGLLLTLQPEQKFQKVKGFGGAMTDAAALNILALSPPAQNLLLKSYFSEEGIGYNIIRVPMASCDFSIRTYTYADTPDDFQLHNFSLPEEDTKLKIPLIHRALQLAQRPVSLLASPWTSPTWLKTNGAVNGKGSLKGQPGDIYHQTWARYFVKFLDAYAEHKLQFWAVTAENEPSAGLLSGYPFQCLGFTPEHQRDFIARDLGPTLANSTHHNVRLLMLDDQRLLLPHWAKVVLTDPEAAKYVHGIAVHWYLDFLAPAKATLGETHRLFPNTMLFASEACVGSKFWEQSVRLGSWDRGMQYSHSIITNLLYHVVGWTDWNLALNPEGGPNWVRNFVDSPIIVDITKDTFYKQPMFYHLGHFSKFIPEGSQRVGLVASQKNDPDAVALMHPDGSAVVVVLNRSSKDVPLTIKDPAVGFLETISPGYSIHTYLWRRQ
# Ca^2+ channel = conditions: cited from earlier work; for IC50: previously reported, Li et al., J Med Chem 35: 3246-3253, 1992, read-out: Ca^2+ channel blocker IC50
# [1] = 7 days, intact cell GC activity assay (FIG. 19D)
smiles,measurement,setting,value
"CC(=O)N[C@H]1C(O)N[C@H](CO)[C@H](O)[C@@H]1O (stereo partly drawn) [ADNJ, 2-Acetamido-2-deoxynojirimycin]",Hex α-site activity as % of cellular WT Hex α-site activity,G269S/1278insTATC HexA,25%
same,"cellular Hex α-site activity, fold increase",G269S/1278insTATC HexA,2.5 fold
"CN(C)CCN1C(=O)[C@H](O)[C@H](c2ccc(O)cc2)Sc2ccccc21 [Compound 3, (2S,3S)-5-[2-(Dimethylamino)ethyl]-2,3-dihydro-3-hydroxy-2-(4-hydroxyphenyl)-1,5-benzothiazepin-4(5H)-one]","L444P GC activity, maximum fold increase",L444P GC; [1],1.3 fold
same,IC50,Ca^2+ channel,45.5 µM
"CNCCN1C(=O)[C@H](O)[C@H](c2ccc(O)cc2)Sc2ccccc21 [Compound 4, (2S,3S)-2,3-Dihydro-3-hydroxy-2-(4-hydroxyphenyl)-5-[2-(methylamino)ethyl]-1,5-benzothiazepin-4(5H)-one]","L444P GC activity, maximum fold increase",L444P GC; [1],1.2 fold
same,IC50,Ca^2+ channel,127 µM
COc1ccc([C@@H]2Sc3ccccc3NC(=O)[C@@H]2O)cc1 [Compound 6],effect on L444P GC activity,"L444P GC; 0.3 to 100 μM, 7 days, intact cell GC activity assay (FIG. 19D)",do not increase L444P GC activity
same,Ca^2+ channel antagonist activity,"Ca^2+ channel; according to reported SAR studies, lack basic amino nitrogen pharmacophore",not Ca^2+ channel antagonists
COc1ccc(S(=O)(=O)N(CCO)c2ccccc2CN(C)C/C=C/c2ccc(Cl)cc2)cc1 [KN93],effect on L444P GC activity,L444P GC; IP3R inhibitors (FIG. 33),None of the compounds enhanced L444P GC activity
C1CCCC2CCCN3CCC(CCCCCCC4CCCN5CCC(CC1)OC45)OC23 (stereo not drawn) [XeC],effect on L444P GC activity,L444P GC; IP3R inhibitors (FIG. 33),None of the compounds enhanced L444P GC activity
CCN(CC)CCCC(C)Nc1ccnc2cc(Cl)ccc12 (stereo not drawn) [chloroquinine],effect on L444P GC activity,L444P GC; IP3R inhibitors (FIG. 33),None of the compounds enhanced L444P GC activity
CC(=O)N[C@@H](CSC(=O)[C@]1([C@@H](O)C(C)C)NC(=O)[C@H](C)[C@@H]1O)C(=O)O [lactacystin],GC proteostasis regulator function,L444P GC; L444P GC cells,not a GC proteostasis regulator
C=C[C@H]1C[N@@]2CC[C@H]1C[C@H]2[C@H](O)c1ccnc2ccc(OC)cc12 [quinine],effect on L444P GC activity,L444P GC; IP3R inhibitors (FIG. 33),None of the compounds enhanced L444P GC activity
N.N.N.N.N.N.N.N.N.N.N.N.N.N.[Cl-].[Cl-].[Cl-].[Cl-].[Cl-].[Cl-].[O-2].[O-2].[Ru+3].[Ru+3].[Ru+4] [ruthenium red],"effect on L444P GC activity, intact cell GC enzyme assay","L444P GC; thermosensitive TRP channel modulators, 5-day incubation",notably increased
C/C=C(/C)C(=O)O[C@H]1C(C)=C2[C@H]([C@@H]1OC(=O)CCCCCCC)[C@@](C)(OC(C)=O)C[C@H](OC(=O)CCC)[C@@]1(O)[C@H]2OC(=O)[C@@]1(C)O [thapsigargin],"effect on L444P GC folding, trafficking and lysosomal activity",L444P GC; thapsigargin (FIG. 25),does not enhance
same,concentration above which L444P GC activity is decreased significantly,"L444P GC; thapsigargin alone, 7-day incubation",> 1 nM
same,effect on GC activity in L444P GC cells,"L444P GC; varying concentrations co-applied with 10 μM diltiazem, 7 days",dose-dependent decrease of GC activity
C[CH2][Hg][S]c1ccccc1C(=O)[O-].[Na+] [thimerosal],effect on L444P GC activity,L444P GC; IP3R inhibitors (FIG. 33),None of the compounds enhanced L444P GC activity
